Measurements reported in patent US20100311714A1, “1H-IMIDAZO[4,5-c]QUINOLINONE COMPOUNDS” (priority 2009, published 2010).
Where two headings read alike, the source gives them in different places.

Legend:
mTOR = biological target: T1, mTOR (Homo sapiens, UniProt P42345); assay: Biochemical assay for m-TOR by TR-FRET
T1 construct: purchased Invitrogen Corporation (Carlsbad/Calif., USA) PV4753
Outline: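 mTOR (0.5 nM) phosphorylates GFP-4EBP1 (400 nM) with 8 μM ATP at rt in 50 mM HEPES pH 7.5, 10 mM MnCl2, 50 mM NaCl, 1 mM EGTA, 1 mM DTT; compounds 0.003–10 μM final. EDTA stop with Tb-anti-p4EBP1[pT46] antibody (0.5 nM); TR-FRET read after 15 min against no-enzyme and vehicle controls.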

[1] = test system: PKB Ser473 phosphorylation in Rat1-myr-HA-p110 alpha cells; assay: Reverse protein array, PKB Ser473 phosphorylation in Rat1-myr-HA-p110 alpha cells; assay type: cell-based; conditions: Rattus norvegicus, 0.5 h, 30 minutes compound incubation, read-out: p-PKB/IC50_alpha
[2] = test system: PKB Ser473 phosphorylation in Rat1-myr-HA-p110 beta cells; assay: Reverse protein array, PKB Ser473 phosphorylation in Rat1-myr-HA-p110 beta cells; assay type: cell-based; conditions: Rattus norvegicus, 0.5 h, 30 minutes compound incubation, read-out: p-PKB/IC50_beta

T1 sequence (P42345 1360-2549 limits assumed): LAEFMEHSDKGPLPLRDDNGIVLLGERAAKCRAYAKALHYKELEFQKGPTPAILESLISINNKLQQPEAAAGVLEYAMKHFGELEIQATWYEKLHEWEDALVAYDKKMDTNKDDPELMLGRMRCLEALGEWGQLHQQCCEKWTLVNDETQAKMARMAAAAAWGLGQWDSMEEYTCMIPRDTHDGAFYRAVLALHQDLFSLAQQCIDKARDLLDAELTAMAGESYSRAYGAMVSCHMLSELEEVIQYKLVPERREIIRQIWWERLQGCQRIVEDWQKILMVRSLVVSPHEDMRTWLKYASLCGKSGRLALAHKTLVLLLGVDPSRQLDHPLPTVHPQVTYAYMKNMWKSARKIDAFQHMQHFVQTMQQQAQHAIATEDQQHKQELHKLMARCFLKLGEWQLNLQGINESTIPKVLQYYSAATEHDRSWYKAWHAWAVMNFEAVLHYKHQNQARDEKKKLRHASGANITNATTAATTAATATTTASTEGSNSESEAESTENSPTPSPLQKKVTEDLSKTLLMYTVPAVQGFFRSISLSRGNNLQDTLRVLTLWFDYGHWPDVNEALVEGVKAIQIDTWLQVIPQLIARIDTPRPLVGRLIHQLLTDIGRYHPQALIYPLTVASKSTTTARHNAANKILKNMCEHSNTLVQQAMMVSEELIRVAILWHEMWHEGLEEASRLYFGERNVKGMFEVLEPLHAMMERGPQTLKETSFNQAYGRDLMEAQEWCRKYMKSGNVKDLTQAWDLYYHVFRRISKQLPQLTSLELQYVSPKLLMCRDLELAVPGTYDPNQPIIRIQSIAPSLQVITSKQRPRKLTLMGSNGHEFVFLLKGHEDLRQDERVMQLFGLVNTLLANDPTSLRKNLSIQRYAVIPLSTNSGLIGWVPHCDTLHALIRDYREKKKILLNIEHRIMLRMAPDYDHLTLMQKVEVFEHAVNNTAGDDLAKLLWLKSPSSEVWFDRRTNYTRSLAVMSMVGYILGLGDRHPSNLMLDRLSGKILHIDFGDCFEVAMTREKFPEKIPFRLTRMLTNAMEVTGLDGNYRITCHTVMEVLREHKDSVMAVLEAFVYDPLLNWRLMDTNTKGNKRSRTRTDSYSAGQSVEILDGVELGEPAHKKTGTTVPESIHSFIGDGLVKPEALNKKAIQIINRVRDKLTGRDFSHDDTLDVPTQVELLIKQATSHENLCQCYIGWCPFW

Row | SMILES | IC50 (mTOR; read-out: mTOR/IC50) | IC50 [1] | IC50 [2] | IC50 (mTOR; read-out: EPK_mTOR/IC50)
1 | COc1ncccc1-n1c(=O)n(C)c2cnc3ccc(-c4cnc5c(ccn5C)c4)cc3c21 [Example 1.7, 1-(2-Methoxy-pyridin-3-yl)-3-methyl-8-(1-methyl-1H-pyrrolo[2,3-b]pyridin-5-yl)-1,3-dihydro-imidazo[4,5-c]quinolin-2-one] | 16 nM | 5.44 nM | 29.6 nM | 
2 | CNc1cc(-c2ccc3ncc4c(c3c2)n(-c2ccc(F)nc2C)c(=O)n4C)cnc1CO [Example 7.11, 1-(6-Fluoro-2-methyl-pyridin-3-yl)-8-(6-hydroxymethyl-5-methylamino-pyridin-3-yl)-3-methyl-1,3-dihydro-imidazo[4,5-c]quinolin-2-one] |  | 12.6 nM | 15.8 nM | 11 nM
3 | COCCN(C)c1ccc(-n2c(=O)n(C)c3cnc4ccc(-c5cnc(N(C)C)nc5)cc4c32)c(C)n1 [Example 15.5, 8-(2-Dimethylamino-pyrimidin-5-yl)-1-{6-[(2-methoxy-ethyl)-methyl-amino]-2-methyl-pyridin-3-yl}-3-methyl-1,3-dihydro-imidazo[4,5-c]quinolin-2-one] |  | 40.7 nM | 132 nM | 71 nM
4 | CNC(=O)c1cc(-c2ccc3ncc4c(c3c2)n(-c2ccc(F)nc2C)c(=O)n4C)cnc1N [Example 7.14, 2-Amino-5-[1-(6-fluoro-2-methyl-pyridin-3-yl)-3-methyl-2-oxo-2,3-dihydro-1H-imidazo[4,5-c]quinolin-8-yl]-N-methyl-nicotinamide] |  | 15.2 nM | 50.6 nM | 251 nM
5 | CCOc1ccc(-c2ccc3ncc4c(c3c2)n(-c2ccc(C)nc2C)c(=O)n4C)cn1 [Example 14.2, 1-(2,6-Dimethyl-pyridin-3-yl)-8-(6-ethoxy-pyridin-3-yl)-3-methyl-1,3-dihydro-imidazo[4,5-c]quinolin-2-one] |  | 20.4 nM | 21.7 nM | 26 nM
6 | COc1ccc(-c2ccc3ncc4c(c3c2)n(-c2cccnc2)c(=O)n4C)cn1 [Example 5.4, 8-(6-Methoxy-pyridin-3-yl)-3-methyl-1-pyridin-3-yl-1,3-dihydro-imidazo[4,5-c]quinolin-2-one] | 115 nM | 92.4 nM | 152 nM | 
7 | CNc1ccc(-c2ccc3ncc4c(c3c2)n(-c2ccc(NC(=O)COC)nc2C)c(=O)n4C)cn1 [Example 20.4, 2-Methoxy-N-{6-methyl-5-[3-methyl-8-(6-methylamino-pyridin-3-yl)-2-oxo-2,3-dihydro-imidazo[4,5-c]quinolin-1-yl]-pyridin-2-yl}-acetamide] |  | 5.6 nM | 9.5 nM | 11 nM
8 | COCCN(C)c1ccc(-n2c(=O)n(C)c3cnc4ccc(-c5cnc(N)c(C(F)(F)F)c5)cc4c32)c(C)n1 [Example 15.1, 8-(6-Amino-5-trifluoromethyl-pyridin-3-yl)-1-{6-[(2-methoxy-ethyl)-methyl-amino]-2-methyl-pyridin-3-yl}-3-methyl-1,3-dihydro-imidazo[4,5-c]quinolin-2-one] |  | < 4.57 nM | 6.1 nM | 8 nM
9 | Cc1ccc(-n2c(=O)n(C)c3cnc4ccc(-c5cnc(N)c(C(F)(F)F)c5)cc4c32)c(C)n1 [Example 14.5, 8-(6-Amino-5-trifluoromethyl-pyridin-3-yl)-1-(2,6-dimethyl-pyridin-3-yl)-3-methyl-1,3-dihydro-imidazo[4,5-c]quinolin-2-one] |  | 4.9 nM | 10.8 nM | 17 nM
10 | COc1ncccc1-n1c(=O)n(C)c2cnc3ccc(-c4ccc(F)nc4)cc3c21 [Example 1.8, 8-(6-Fluoro-pyridin-3-yl)-1-(2-methoxy-pyridin-3-yl)-3-methyl-1,3-dihydro-imidazo[4,5-c]quinolin-2-one] | 87 nM | 97.6 nM | 324 nM | 
11 | CCOc1ccc(-c2ccc3ncc4c(c3c2)n(-c2ccc(OCCOC)nc2C)c(=O)n4C)cn1 [Example 13.1, 8-(6-Ethoxy-pyridin-3-yl)-1-[6-(2-methoxy-ethoxy)-2-methyl-pyridin-3-yl]-3-methyl-1,3-dihydro-imidazo[4,5-c]quinolin-2-one] |  | 17 nM | 15.7 nM | 49 nM
